Here are results for two compounds from ChEMBL document CHEMBL5584238, “Psammaplin A analogues with modified disulfide bond targeting histone deacetylases: Synthesis and biological evaluation” (Eur J Med Chem, 2024).

The structures appear in SMILES notation. Calls of active or inactive are those of the source. No cut-off for these calls is given here.

One experiment concerns the target Histone deacetylase 1 (Homo sapiens, UniProt Q13547). As to the kind of experiment: Inhibition of recombinant human HDAC1 using Boc-Lys(Ac)-AMC as substrate preincubated for 1 hr followed by substrate addition and measured after 2 hrs by microplate reader assay.
Experiment [1] deals with HCT-116. As to the kind of experiment: Induction of cell cycle arrest in human HCT-116 cells assessed as accumulation of cells at S phase at 0.1 uM after 24 hrs by PI staining based flow cytometry analysis (reference value: 52.8%). Type of experiment: functional. (In general: Flow cytometry measures light scatter and fluorescence of single cells or particles in a stream.)

Experiment [2] concerns HCT-116. As to the kind of experiment: Induction of apoptosis in human HCT-116 cells assessed as viable cells at 0.2 uM incubated for 24 hrs by Annexin V-FITC/PI staining based flow cytometry analysis ( Rvb = 92.2%). Type of experiment: functional. As to conditions: read-out: Activity.
In experiment [3] the test system is HCT-116. The experiment in a line: Induction of apoptosis in human HCT-116 cells assessed as necrotic cells at 0.2 uM incubated for 24 hrs by Annexin V-FITC/PI staining based flow cytometry analysis ( Rvb = 0.24%). In kind it is functional.
The subject of experiment [4] is HCT-116. The experiment in a line: Antitumor activity against human HCT-116 cells xenografted with BALB/c nude mouse assessed as tumor growth inhibition at 5 mg/kg, ip administered every 2 days for 26 days. Type of experiment: functional. Particulars: HCT-116, 624 h, time 26 day, read-out: TGI. In general terms: In xenograft studies the graft and the host belong to different species.

For experiment [5], the target named is T1, Protein deacetylase HDAC6 (Mus musculus) (UniProt Q9Z2V5).
T1 sequence (whole entry): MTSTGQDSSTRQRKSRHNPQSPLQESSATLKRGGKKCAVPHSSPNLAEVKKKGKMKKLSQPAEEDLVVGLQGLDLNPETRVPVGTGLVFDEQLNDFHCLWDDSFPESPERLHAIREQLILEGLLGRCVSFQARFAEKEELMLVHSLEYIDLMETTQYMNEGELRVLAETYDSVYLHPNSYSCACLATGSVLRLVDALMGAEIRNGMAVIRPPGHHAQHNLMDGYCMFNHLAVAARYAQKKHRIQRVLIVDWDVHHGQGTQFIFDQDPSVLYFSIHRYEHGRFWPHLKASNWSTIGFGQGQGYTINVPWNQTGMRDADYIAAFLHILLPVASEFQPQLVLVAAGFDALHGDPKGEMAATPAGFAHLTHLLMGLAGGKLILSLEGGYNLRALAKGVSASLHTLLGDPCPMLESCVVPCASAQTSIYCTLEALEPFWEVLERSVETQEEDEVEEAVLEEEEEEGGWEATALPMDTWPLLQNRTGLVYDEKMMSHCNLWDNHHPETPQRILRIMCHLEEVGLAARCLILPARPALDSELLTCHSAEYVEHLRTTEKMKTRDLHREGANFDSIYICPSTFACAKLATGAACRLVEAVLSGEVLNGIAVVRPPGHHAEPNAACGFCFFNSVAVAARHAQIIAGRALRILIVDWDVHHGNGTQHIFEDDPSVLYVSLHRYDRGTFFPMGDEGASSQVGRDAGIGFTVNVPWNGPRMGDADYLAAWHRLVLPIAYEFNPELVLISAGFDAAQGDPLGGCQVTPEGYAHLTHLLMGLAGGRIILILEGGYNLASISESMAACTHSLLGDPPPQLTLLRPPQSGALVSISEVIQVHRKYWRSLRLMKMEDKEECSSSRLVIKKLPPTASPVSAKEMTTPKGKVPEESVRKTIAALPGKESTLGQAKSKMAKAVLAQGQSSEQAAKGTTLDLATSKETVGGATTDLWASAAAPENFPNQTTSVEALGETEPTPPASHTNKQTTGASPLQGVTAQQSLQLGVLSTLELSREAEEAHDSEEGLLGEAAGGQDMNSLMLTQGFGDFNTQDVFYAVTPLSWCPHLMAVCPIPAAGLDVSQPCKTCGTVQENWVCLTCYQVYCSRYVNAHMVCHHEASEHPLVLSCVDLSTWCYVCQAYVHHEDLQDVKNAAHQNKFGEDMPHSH
As to the kind of experiment: In vivo inhibition of HDAC6 in BALB/c nude mouse assessed as upregulation of tumor acetylated alpha-tubulin level at 5 mg/kg, ip administered every 2 days for 26 days by Western blotting analysis. In kind it is functional, organism-based. Particulars: time 26.0 day. Background: Immunoblotting shows a protein as a band on a membrane.

Experiment [6] addresses T2, Protein deacetylase HDAC6 (Homo sapiens) (UniProt Q9UBN7).
T2 sequence (whole entry): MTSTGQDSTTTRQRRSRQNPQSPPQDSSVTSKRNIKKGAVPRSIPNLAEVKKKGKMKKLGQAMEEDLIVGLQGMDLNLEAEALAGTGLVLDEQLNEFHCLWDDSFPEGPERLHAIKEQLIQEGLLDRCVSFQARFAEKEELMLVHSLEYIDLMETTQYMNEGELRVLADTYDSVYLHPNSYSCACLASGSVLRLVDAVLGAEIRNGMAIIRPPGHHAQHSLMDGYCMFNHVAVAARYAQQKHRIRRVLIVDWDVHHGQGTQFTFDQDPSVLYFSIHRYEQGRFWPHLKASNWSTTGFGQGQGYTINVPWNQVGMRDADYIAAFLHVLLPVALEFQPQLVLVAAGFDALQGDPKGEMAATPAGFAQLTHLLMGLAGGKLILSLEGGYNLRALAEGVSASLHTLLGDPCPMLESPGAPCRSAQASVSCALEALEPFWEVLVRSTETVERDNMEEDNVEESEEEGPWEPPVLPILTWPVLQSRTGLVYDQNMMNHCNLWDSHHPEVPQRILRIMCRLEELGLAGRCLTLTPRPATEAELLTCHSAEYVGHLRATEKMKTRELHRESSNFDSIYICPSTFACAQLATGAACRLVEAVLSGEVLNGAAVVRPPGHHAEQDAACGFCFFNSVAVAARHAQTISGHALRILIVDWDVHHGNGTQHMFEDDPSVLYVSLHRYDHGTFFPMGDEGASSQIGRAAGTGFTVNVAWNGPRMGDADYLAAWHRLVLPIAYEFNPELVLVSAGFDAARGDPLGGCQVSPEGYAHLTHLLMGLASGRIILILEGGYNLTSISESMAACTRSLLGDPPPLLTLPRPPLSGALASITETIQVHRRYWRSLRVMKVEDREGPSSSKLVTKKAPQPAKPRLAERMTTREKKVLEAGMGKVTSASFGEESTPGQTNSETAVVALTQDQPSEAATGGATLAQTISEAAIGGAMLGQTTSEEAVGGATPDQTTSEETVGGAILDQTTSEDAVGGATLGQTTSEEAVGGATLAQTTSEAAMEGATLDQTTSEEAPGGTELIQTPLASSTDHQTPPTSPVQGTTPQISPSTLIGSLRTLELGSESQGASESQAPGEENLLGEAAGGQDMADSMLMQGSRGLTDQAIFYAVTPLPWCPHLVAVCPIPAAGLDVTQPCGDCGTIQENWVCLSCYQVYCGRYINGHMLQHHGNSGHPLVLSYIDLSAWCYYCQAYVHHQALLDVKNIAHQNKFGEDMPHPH
The experiment in a line: Inhibition of HDAC6 in human HCT-116 cells assessed as upregulation of acetylated alpha-tubulin level at 1 uM incubated for 24 hrs by Western blotting analysis. Type of experiment: cell-based.

The subject of experiment [7] is HCT-116. As to the kind of experiment: Induction of cell cycle arrest in human HCT-116 cells assessed as accumulation of cells at G2/M phase at 0.4 uM after 24 hrs by PI staining based flow cytometry analysis (reference value: 9.3%). In kind it is functional.

Chain of Histone deacetylase 1 (Q13547 whole entry): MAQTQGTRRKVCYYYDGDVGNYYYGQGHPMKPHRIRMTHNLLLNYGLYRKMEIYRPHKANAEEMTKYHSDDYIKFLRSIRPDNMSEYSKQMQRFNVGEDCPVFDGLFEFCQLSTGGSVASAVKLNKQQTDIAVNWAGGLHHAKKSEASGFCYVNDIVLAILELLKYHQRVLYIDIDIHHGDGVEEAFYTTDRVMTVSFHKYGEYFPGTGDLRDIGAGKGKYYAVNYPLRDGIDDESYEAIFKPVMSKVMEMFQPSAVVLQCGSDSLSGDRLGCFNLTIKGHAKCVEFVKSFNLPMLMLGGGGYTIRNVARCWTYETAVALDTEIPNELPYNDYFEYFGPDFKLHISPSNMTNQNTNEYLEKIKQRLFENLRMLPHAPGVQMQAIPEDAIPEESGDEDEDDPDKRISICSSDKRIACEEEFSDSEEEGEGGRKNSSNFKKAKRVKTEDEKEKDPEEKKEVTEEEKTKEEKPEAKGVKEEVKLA

Take `O=C(NCC[Se][Se]CCNC(=O)/C(Cc1ccc(O)c(Br)c1)=N/O)/C(Cc1ccc(O)c(Br)c1)=N/O`: the IC50 at Histone deacetylase 1 was found to be 170 nM. Besides, the figures for the Activity in the experiment on HCT-116 [1] and with HCT-116 [3] were 20% and 0.32%, respectively. For the same compound, the viability at 0.2 µM with HCT-116 [2] was 40.7%. In the experiment with HCT-116 [4], the inhibition in vivo at 5 mg/kg worked out at 74.6%. Further, in experiment [5], the inhibition entry is “Active”.

Turning to `O=C(NCC[Se][Se]CCNC(=O)/C(Cc1ccsc1)=N/O)/C(Cc1ccsc1)=N/O`, the inhibition result in experiment [6] and in experiment [5] was “Active” throughout. The IC50 at Histone deacetylase 1 worked out at 770 nM. The Activity was found to be 18.84% in the experiment on HCT-116 [1], 52.59% in the experiment with HCT-116 [7] and 0.18% with HCT-116 [3]. In the experiment with HCT-116 [2], the viability at 0.2 µM came out at 34.5%. For the same compound, the inhibition in vivo at 5 mg/kg in the experiment on HCT-116 [4] was 24%.

The IC50 is the concentration that inhibits the measured activity by half.
